Results on one molecule are retold here after paper PMC7586935 (Journal of Clinical Pharmacology, 2020).

Data set [1] can be described thus: Plasma pharmacokinetics after single oral dose. The class given is in vivo. Conditions: human, oral, 400 mg.
Data set [2] concerns healthy volunteers. The experiment in a line: ECG outlier analyses. The data set is classed as in vivo, human. To be noted: moxifloxacin 400 mg, n = 18.
Data set [3] deals with healthy volunteers. The experiment in a line: ECG morphological analyses. The class given is in vivo, human. To be noted: moxifloxacin 400 mg, n = 18.
Data set [4] has as its system healthy volunteers. The data set is described as follows: Safety assessment: treatment-emergent adverse events. Conditions: moxifloxacin 400 mg, one subject. The class given is in vivo, human.
Data set [5] concerns QT/QTc interval of healthy volunteers. The data set is described as follows: Concentration-QTc.

`COc1c(N2C[C@@H]3CCCN[C@@H]3C2)c(F)cc2c(=O)c(C(=O)O)cn(C3CC3)c12` [Moxifloxacin]: in data set [1], the AUC (commonly the area under the concentration-time curve, a measure of exposure) was 24700 ± 5240 ng·h/mL; the Cmax – broadly, the maximum level reached in the sampled fluid or tissue – is 2760 ± 559 ng/mL; the Tmax (commonly the time from dosing to the highest level) came out at 1 h. In the data set with healthy volunteers [2], the “Heart rate: Bradycardic outliers” value is recorded as 0 n (%), the “Heart rate: Tachycardic outliers” value is on record as 1 (6) n (%), the “PR interval: Outliers” value was 0 n (%) and the “QRS interval: Outliers” value is 0 n (%). In the data set on healthy volunteers [2], the “QTcF >30‐60 ms inc change from baseline” value is reported as 2 (11) n (%), the “QTcF >60 ms inc change from baseline” value was 0 n (%), the “QTcF New >480 ms” value is given as 0 n (%) and the “QTcF New >500 ms” value is listed as 0 n (%). For the same molecule, in the data set with healthy volunteers [3], the “New ST‐segment depression changes” value is 1 (6) n (%), the “New ST‐segment elevation changes” value was 0 n (%), the New atrial fibrillation was 0 n (%) and the New atrial flutter was 0 n (%). In addition, in the data set on healthy volunteers [3], the “New second‐degree heart block” value is on record as 0 n (%) and the “New third‐degree heart block” value is on record as 0 n (%). Besides, in the data set with healthy volunteers [4], the “Somnolence, frequency of subjects” value was determined as 5.6%. Besides, in data set [5] (moxifloxacin 400 mg, mean Cmax 2758.3 ng/mL), the “Predicted Mean Effect at Mean Cmax (placebo-corrected change from baseline QTcF, ΔΔQTcF)” value is listed as 15.2 ms. In addition, in data set [5] (moxifloxacin plasma concentration, assay sensitivity), the “Slope of placebo-adjusted change from baseline QTcF vs plasma concentration” value was found to be 4.24 ms/[μg/mL].
